Laboratory results from patent EP0973746B1, “SUBSTITUTED 3-CYANO QUINOLINES” (Wyeth Holdings Corporation, priority 1997, dated 1998).
≈ marks a conversion by molar mass, not a printed value. Like-named read-outs stand apart in the source and are kept apart here.

Assays:
CCL228 = test: Inhibition of cancer cell growth as measured by cell number, CCL228; assay type: cell-based; conditions: Homo sapiens, 48 h, read-out: IC50 CCL228
CCRF-CFM = test: Inhibition of cancer cell growth as measured by cell number, CCRF-CFM; assay type: cell-based; conditions: Homo sapiens, 48 h, read-out: IC50 CCRF-CFM
A431 = test: Inhibition of cancer cell growth as measured by cell number, A431; assay type: cell-based, human; conditions: Homo sapiens, A-431, 48 h, read-out: IC50 A431, cell number, Sulforhodamine B, 48 hours exposure; Table 6;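 further: human A431 line, picked because it overexpresses epidermal growth factor receptor (EGFR)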
Source text: (§1) The cell lines were chosen since they overexpressed epidermal growth factor receptor (EGFR) (i.e. A431) or HER2/neu (SKBR3), or had little to no expression of the these receptors (SW620, LOX, MCF7).

SW948 = test: Inhibition of cancer cell growth as measured by cell number, SW948; assay type: cell-based; conditions: Homo sapiens, SW948, 48 h, read-out: IC50 SW948
A549 = test: Inhibition of cancer cell growth as measured by cell number, A549; assay type: cell-based; conditions: Homo sapiens, A549, 48 h, read-out: IC50 A549
LOX = test: Inhibition of cancer cell growth as measured by cell number, LOX; assay type: cell-based, human; conditions: Homo sapiens, LOX, 48 h, read-out: IC50 LOX, cell number, Sulforhodamine B, 48 hours exposure; Table 6;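 further: LOX cells served as a line with low or absent EGFR and HER2/neu expression, in contrast to receptor-overexpressing lines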
Source text: as §1

CX1 = test: Inhibition of cancer cell growth as measured by cell number, CX1; assay type: cell-based; conditions: Homo sapiens, CX-1, 48 h, read-out: IC50 CX1
MIP = test: Inhibition of cancer cell growth as measured by cell number, MIP; assay type: cell-based; conditions: Homo sapiens; cell number, Sulforhodamine B, 48 hours exposure; Table 4; read-out: IC50 MIP
MCF7 = test: Inhibition of cancer cell growth as measured by cell number, MCF7; assay type: cell-based, human; conditions: Homo sapiens, MCF7, 48 h, read-out: IC50 MCF7, cell number, Sulforhodamine B, 48 hours exposure; Table 5;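 further: MCF7 was included as a line with little or no EGFR or HER2/neu expression, in contrast to the receptor-overexpressing lines of the panel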
Source text: as §1

NEC = test: Inhibition of cancer cell growth as measured by cell number, NEC; assay type: cell-based; conditions: Homo sapiens, 48 h, read-out: IC50 NEC
CACO2 = test: Inhibition of cancer cell growth as measured by cell number, CACO2; assay type: cell-based; conditions: Homo sapiens, Caco-2, 48 h, read-out: IC50 CACO2
A2780DDP = test: Inhibition of cancer cell growth as measured by cell number, A2780DDP; assay type: cell-based; conditions: Homo sapiens, 48 h, read-out: IC50 A2780DDP
B7474 = test: Inhibition of cancer cell growth as measured by cell number, B7474; assay type: cell-based; conditions: Homo sapiens, 48 h, read-out: IC50 B7474
COLO205 = test: Inhibition of cancer cell growth as measured by cell number, COLO205; assay type: cell-based; conditions: Homo sapiens, COLO 205, 48 h, read-out: IC50 COLO205
A27805 = test: Inhibition of cancer cell growth as measured by cell number, A27805; assay type: cell-based; conditions: Homo sapiens, 48 h, read-out: IC50 A27805
SKBR3 = test: Inhibition of cancer cell growth as measured by cell number, SKBR3; assay type: cell-based, human; conditions: Homo sapiens, SK-BR-3, 48 h, read-out: IC50 SKBR3, cell number, Sulforhodamine B, 48 hours exposure; Table 7;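 further: SK-BR-3 cells were selected as a line overexpressing HER2/neu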
Source text: as §1

[1] = target: recombinant human MEK 1 (MAPKK) and recombinant human ERK2 (MAPK); test: Mitogen Activated Protein Kinase (MAPK) assay, two component coupled MEK 1 / ERK2; assay type: biochemical; conditions: separate entries for the same compound = evaluated more than one time;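 further: MEK 1-activated ERK2 phosphorylates MBP or Myc peptide with 33P-ATP, filter capture and scintillation counting, inhibitor preincubated with ERK2 30 min at 0 °C, inhibition relative to uninhibited control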
Procedure: To evaluate inhibitors of the MAP (mitogen activated protein) kinase a two component coupled standard pharmacological test procedure, which measures phosphorylation of a serine/threonine residue in an appropriate sequence in the substrate in the presence and absence of a putative inhibitor, was used. Recombinant human MEK 1 (MAPKK) was first used to activate recombinant human ERK2 (MAPK) and the activated MAPK (ERK) was incubated with substrate (MBP peptide or MYC peptide) in the presence of ATP, Mg^+2 and radiolabeled ^33P ATP. The phosphorylated peptide was captured on a P 81 phosphocellulose filter (paper filter or embedded in microtiter plate) washed and counted by scintillation methods.
The peptide substrates used in the assay are MBP, peptide substrate ([sequence]), or synthetic Myc substrate, ([sequence]•5 TFA. The recombinant enzymes used were prepared as GST fusion proteins of human ERK 2 and human MEK 1. Inhibitor samples were prepared as 10X stocks in 10% DMSO and an appropriate aliquot was used to deliver either 10 ug/ml for a single point screening dose or 100, 10, 1, and 0.1 uM final concentration for a dose response curve. Final DMSO concentrations were less than or equal to 1%.
The reaction was run as follows in 50 mM Tris kinase buffer, pH 7.4 in a reaction volume of 50 ul. The appropriate volume of kinase buffer and inhibitor sample was added to the tube. Appropriate dilution of enzyme was delivered to give 2-5 ug recombinant MAPK (Erk ) per tube. The inhibitor was incubated with MAPK (Erk) for 30 min at 0 deg. […] Recombinant Mek (MAPKK) ( 0.5-2.5 ug) or fully activated Mek (0.05-0.1 units) was added to activate the Erk and incubated for 30 min at 30° C. […] Samples were incubated at 30°C for 30 minutes and the reaction was stopped by adding 25 µl of ice cold 10 %TCA .After samples were chilled on ice for 30 min, 20 µl of sample was transferred onto P 81 phosphocellulose filter paper or appropriate MTP with embedded P 81 filter. Filter papers or MTP were washed 2 times with a large volume of 1% acetic acid, then 2 times with water. The filters or MTP were briefly air dried before addition of scintillant and samples were counted in the appropriate scintillation counter set up for reading ^33P isotope.
The raw data was captured as cpm. Sample replicates were averaged and corrected for background count. Mean cpm data was tabulated by group and % inhibition by a test compound was calculated as (corrected cpm control- corrected. cpm sample/control) X 100 = % inhibition.

LX1 = test: Inhibition of cancer cell growth as measured by cell number, LX1; assay type: cell-based; conditions: Homo sapiens, LX-1, 48 h, read-out: IC50 LX1
PC3 = test: Inhibition of cancer cell growth as measured by cell number, PC3; assay type: cell-based; conditions: Homo sapiens, PC-3, 48 h, read-out: IC50 PC3
SW620 = test: Inhibition of cancer cell growth as measured by cell number, SW620; assay type: cell-based, human; conditions: Homo sapiens, SW-620, 48 h;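 further: SW620 was included as a cell line with little or no EGFR or HER2/neu expression, in contrast to receptor-overexpressing lines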
Source text: as §1

HCT15 = test: Inhibition of cancer cell growth as measured by cell number, HCT15; assay type: cell-based; conditions: Homo sapiens, HCT-15, 48 h, read-out: IC50 HCT15
LS174T = test: Inhibition of cancer cell growth as measured by cell number, LS174T; assay type: cell-based; conditions: Homo sapiens, 48 h, read-out: IC50 LS174T
T47D = test: Inhibition of cancer cell growth as measured by cell number, T47D; assay type: cell-based; conditions: Homo sapiens, 48 h, read-out: IC50 T47D
DU145 = test: Inhibition of cancer cell growth as measured by cell number, DU145; assay type: cell-based; conditions: Homo sapiens, DU-145, 48 h, read-out: IC50 DU145
HTB161 = test: Inhibition of cancer cell growth as measured by cell number, HTB161; assay type: cell-based; conditions: Homo sapiens, 48 h, read-out: IC50 HTB161
HL60 = test: Inhibition of cancer cell growth as measured by cell number, HL60; assay type: cell-based; conditions: Homo sapiens, HL-60, 48 h, read-out: IC50 HL60
LNCAP = test: Inhibition of cancer cell growth as measured by cell number, LNCAP; assay type: cell-based; conditions: Homo sapiens, 48 h, read-out: IC50 LNCAP
[2] = target: T1, Kinase insert Domain containing Receptor (KDR: the catalytic domain of the VEGF receptor) (Homo sapiens, UniProt P35968); test: Inhibition of Kinase insert Domain containing Receptor (KDR); assay type: biochemical; conditions: pH 7.2; radioactive format; read-out: KDR IC50 (converted);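 further: KDR phosphorylating a Glu:Tyr 4:1 copolymer with P32- or P33-labelled ATP, Mg++ and vanadate, read as acid-insoluble radiolabel, compared with compound-free reaction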
T1 construct: KDR: the catalytic domain of the VEGF receptor
Procedure: In this standard pharmacological test procedure, KDR protein is mixed, in the presence or absence of a inhibitor compound, with a substrate peptide to be phosphorylated (a copolymer of glutamic acid and tyrosine, E:Y :: 4:1) and other cofactors such as Mg^++ and sodium vanadate (a protein tyrosine phosphatase inhibitor) in an appropriate buffer to maintain pH (7.2). ATP and a radioactive tracer (either P^32-or P^33- labeled ATP) is then add to initiate phosphorylation. After incubation, the radioactive phosphate associated with the acid-insoluble fraction of the assay mixture is then quantified as reflection of substrate phosphorylation.

[3] = target: Epithelial Cell Kinase (ECK) (Homo sapiens, UniProt P29317); test: biochemical
[4] = target: epidermal growth factor receptor kinase (Homo sapiens, UniProt P00533); test: biochemical
Procedure: The enzyme was obtained as a membrane extract of A431 cells (American Type Culture Collection, Rockville, MD). A431 cells were grown in T175 flasks to 80% confluency. The cells were washed twice with phosphate buffered saline (PBS) without Ca^2+. Flasks were rotated for 1.5 hours in 20 ml PBS with 1.0 mM ethylenediaminetetraacetic acid (EDTA) at room temperature and centrifuged at 600g for 10 minutes. The cells were solubilized in 1 ml per 5 x 10^6 cells of cold lysis buffer {10mM 4-(2-hydroxyethyl)-1-piperazineethane-sulfonic acid (HEPES), pH 7.6, 10 mM NaCl, 2mM EDTA, 1mM phenylmethyl-sulfonyl-fluoride (PMSF), 10 mg/ml aprotinin, 10 mg/ml leupeptin, 0.1 mM sodium orthovanadate} in a Dounce homogenizer with 10 strokes on ice. The lysate was centrifuged at 600g for 10 minutes first to clear cell debris and the supernatant further centrifuged at 100,000 g for 30 min at 4°C. The membrane pellet was suspended in 1.5 ml HNG buffer (50 mM HEPES, pH 7.6, 125 mM NaCl, 10% glycerol). The membrane extract was divided into aliquots, immediately frozen in liquid nitrogen and stored at -70°C.
Compounds to be evaluated were made into 10 mg/ml stock solutions in 100% dimethylsulfoxide (DMSO). Prior to experiment, stock solutions were diluted to 500 mM with buffer (30 mM Hepes pH 7.4) and then serially diluted to the desired concentration.
An aliquot of the A431 membrane extract (10 mg/ml) was diluted in 30 mM HEPES (pH 7.4) to give a protein concentration of 50 ug/ml. […] To this was added the ^33p-ATP (10 mCi/ml) diluted 1:10 in assay buffer along with the substrate peptide at a concentration of 0.5 mM (control reactions get no test compound) and the reaction was allowed to proceed for 30 min at 30°C. The reaction was stopped with 10% TCA and left on ice for at least 10 min after which tubes were microcentrifuged at full speed for 15 min. The a portion of the supernatants were spotted on P81 phosphocellulose discs and washed twice in 1% acetic acid then water for 5 min each followed by scintillation counting. […] The % inhibition of the test compound was determined for at least three different concentrations and the IC50 value was evaluated from the dose response curve. […] CPM(control) is in units of counts per minute and was a number expressing the amount of radiolabeled ATP (g-^33P) incorporated into the RR-SRC peptide substrate by the enzyme after 30 minutes at 30°C in the absence of test compound as measured by liquid scintillation counting. The CPM values were corrected for the background counts produced by ATP in the absence of the enzymatic reaction. The IC50 values reported in TABLE 1 are averages of the number of tests conducted.

[5] = read-out: IC50 SW620, cell number, Sulforhodamine B, 48 hours exposure, Table 4

Chain of epidermal growth factor receptor kinase (P00533 25-1210): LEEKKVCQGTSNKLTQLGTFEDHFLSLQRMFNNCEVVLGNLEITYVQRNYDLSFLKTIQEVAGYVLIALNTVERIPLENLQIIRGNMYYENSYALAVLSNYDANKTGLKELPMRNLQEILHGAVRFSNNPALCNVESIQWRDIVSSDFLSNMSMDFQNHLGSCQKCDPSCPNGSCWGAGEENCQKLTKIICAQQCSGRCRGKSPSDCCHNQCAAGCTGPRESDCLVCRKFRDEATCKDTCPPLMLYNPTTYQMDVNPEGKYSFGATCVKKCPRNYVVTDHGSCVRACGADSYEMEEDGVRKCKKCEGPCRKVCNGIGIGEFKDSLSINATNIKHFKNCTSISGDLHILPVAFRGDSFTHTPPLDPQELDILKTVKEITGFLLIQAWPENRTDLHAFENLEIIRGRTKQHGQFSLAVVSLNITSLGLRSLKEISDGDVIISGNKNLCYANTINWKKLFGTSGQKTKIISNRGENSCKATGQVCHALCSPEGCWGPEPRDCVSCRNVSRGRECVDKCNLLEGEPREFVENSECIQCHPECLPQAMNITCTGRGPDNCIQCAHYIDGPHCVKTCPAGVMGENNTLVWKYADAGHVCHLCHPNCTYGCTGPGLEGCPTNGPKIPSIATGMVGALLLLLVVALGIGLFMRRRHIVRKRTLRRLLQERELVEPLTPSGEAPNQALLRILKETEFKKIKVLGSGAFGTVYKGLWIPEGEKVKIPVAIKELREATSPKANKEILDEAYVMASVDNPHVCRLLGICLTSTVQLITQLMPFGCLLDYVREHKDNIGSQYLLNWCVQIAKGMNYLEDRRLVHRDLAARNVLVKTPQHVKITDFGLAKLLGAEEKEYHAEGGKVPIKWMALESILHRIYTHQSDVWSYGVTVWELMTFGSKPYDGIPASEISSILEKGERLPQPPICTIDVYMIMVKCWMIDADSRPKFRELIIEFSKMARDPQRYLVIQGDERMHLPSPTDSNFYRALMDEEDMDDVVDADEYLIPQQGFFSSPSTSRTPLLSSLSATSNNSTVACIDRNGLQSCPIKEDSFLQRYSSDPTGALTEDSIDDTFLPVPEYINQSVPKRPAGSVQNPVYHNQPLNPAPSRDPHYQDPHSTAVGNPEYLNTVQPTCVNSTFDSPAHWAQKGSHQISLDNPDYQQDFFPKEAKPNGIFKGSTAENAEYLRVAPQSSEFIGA
T1 sequence (P35968 834-1162 limits assumed): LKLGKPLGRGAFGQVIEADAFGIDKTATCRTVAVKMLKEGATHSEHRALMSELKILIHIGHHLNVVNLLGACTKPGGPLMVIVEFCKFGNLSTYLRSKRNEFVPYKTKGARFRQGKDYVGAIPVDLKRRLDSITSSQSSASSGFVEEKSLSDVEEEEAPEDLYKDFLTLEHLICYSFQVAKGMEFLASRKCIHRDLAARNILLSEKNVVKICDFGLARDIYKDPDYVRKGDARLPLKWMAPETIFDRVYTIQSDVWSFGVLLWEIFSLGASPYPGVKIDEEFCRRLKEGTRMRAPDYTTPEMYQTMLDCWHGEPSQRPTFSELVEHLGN
Chain of Epithelial Cell Kinase (ECK) (P29317 24-976, species assumed): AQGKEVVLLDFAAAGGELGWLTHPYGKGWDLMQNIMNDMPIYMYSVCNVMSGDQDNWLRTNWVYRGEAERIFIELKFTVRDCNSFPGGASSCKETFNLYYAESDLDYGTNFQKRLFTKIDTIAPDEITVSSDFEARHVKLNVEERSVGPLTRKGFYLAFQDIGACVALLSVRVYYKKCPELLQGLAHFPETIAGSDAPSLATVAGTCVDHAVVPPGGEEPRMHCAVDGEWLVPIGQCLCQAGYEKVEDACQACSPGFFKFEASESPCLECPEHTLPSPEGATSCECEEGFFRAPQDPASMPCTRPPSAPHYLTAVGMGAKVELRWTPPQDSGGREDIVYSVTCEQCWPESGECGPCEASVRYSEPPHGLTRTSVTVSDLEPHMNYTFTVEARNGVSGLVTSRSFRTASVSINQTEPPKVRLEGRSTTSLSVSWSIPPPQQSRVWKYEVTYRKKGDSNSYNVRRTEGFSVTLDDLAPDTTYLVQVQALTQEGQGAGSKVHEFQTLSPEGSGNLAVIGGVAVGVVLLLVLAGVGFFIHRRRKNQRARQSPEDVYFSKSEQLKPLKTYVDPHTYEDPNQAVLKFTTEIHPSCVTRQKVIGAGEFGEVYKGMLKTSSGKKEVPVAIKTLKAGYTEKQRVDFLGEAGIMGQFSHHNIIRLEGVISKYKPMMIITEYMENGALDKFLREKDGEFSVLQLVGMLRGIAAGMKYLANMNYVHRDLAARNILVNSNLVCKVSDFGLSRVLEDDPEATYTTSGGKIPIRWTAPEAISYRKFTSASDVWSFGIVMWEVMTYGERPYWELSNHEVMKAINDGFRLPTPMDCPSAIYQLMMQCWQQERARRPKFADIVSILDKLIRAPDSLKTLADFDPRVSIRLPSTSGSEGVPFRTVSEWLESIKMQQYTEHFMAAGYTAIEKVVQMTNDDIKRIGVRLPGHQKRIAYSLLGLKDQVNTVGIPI

IC50 [4] | Structure (SMILES) | IC50 (CCL228) | IC50 (CCRF-CFM) | IC50 (SW948) | IC50 (A549) | IC50 (LOX) | IC50 (CX1) | IC50 (MCF7) | IC50 (NEC) | IC50 (B7474) | IC50 (COLO205) | IC50 (SKBR3) | IC50 [1] | IC50 (LX1) | IC50 (PC3) | IC50 (SW620; [5]) | IC50 (LS174T) | IC50 (T47D) | IC50 (LNCAP) | other results
– | COc1cc2ncc(C#N)c(Nc3cccc(Br)c3)c2cc1[N+](=O)[O-] [Example 6] | 2.35 µg/mL (≈ 5.88 µM) | 2.57 µg/mL (≈ 6.44 µM) | 5.2 µg/mL (≈ 13 µM) | 4.45 µg/mL (≈ 11.1 µM) | 0.813 µg/mL (≈ 2.04 µM) | 3.02 µg/mL (≈ 7.58 µM) | 4.27 µg/mL (≈ 10.7 µM) | 4.17 µg/mL (≈ 10.4 µM) | 3.76 µg/mL (≈ 9.41 µM) | 5.51 µg/mL (≈ 13.8 µM) | 4.2 µg/mL (≈ 10.5 µM) | > 100 µM | 5.55 µg/mL (≈ 13.9 µM) | 4.69 µg/mL (≈ 11.7 µM) | 4.71 µg/mL (≈ 11.8 µM) | 2.67 µg/mL (≈ 6.7 µM) | 3.26 µg/mL (≈ 8.18 µM) | 4.19 µg/mL (≈ 10.5 µM) | IC50 (A431): 0.845 µg/mL (≈ 2.12 µM); IC50 (MIP): 0.95 µg/mL (≈ 2.38 µM); IC50 (CACO2): 0.808 µg/mL (≈ 2.02 µM); IC50 (A2780DDP): 3.22 µg/mL (≈ 8.06 µM); IC50 (A27805): 2.49 µg/mL (≈ 6.23 µM); IC50 (HCT15): 1.75 µg/mL (≈ 4.38 µM); IC50 (DU145): 1.03 µg/mL (≈ 2.59 µM); IC50 (HTB161): 1.66 µg/mL (≈ 4.15 µM); IC50 (HL60): 0.947 µg/mL (≈ 2.37 µM)
– | C=CC(=O)Nc1cc2c(Nc3cccc(Br)c3)c(C#N)cnc2cc1OC [Example 9, N-[4-[(3-Bromophenyl)amino]-3-cyano-7-methoxy-6-quinolinyl]-2-propenamide] | 0.707 µg/mL (≈ 1.67 µM) | 0.551 µg/mL (≈ 1.3 µM) | 3.3 µg/mL (≈ 7.8 µM) | 2.92 µg/mL (≈ 6.89 µM) | 0.438 µg/mL (≈ 1.04 µM) | 0.91 µg/mL (≈ 2.15 µM) | 3.25 µg/mL (≈ 7.69 µM) | 0.952 µg/mL (≈ 2.25 µM) | 0.443 µg/mL (≈ 1.05 µM) | 2.56 µg/mL (≈ 6.06 µM) | 0.862 µg/mL (≈ 2.04 µM) | > 100 µM | 0.0672 µg/mL (≈ 0.159 µM) | 1.66 µg/mL (≈ 3.92 µM) | 1.94 µg/mL (≈ 4.58 µM) | 0.712 µg/mL (≈ 1.68 µM) | 0.838 µg/mL (≈ 1.98 µM) | 0.661 µg/mL (≈ 1.56 µM) | IC50 (A431): 0.433 µg/mL (≈ 1.02 µM); IC50 (MIP): 0.731 µg/mL (≈ 1.73 µM); IC50 (CACO2): 0.341 µg/mL (≈ 0.805 µM); IC50 (A2780DDP): 0.513 µg/mL (≈ 1.21 µM); IC50 (A27805): 0.542 µg/mL (≈ 1.28 µM); IC50 (HCT15): 0.984 µg/mL (≈ 2.33 µM); IC50 [2]: > 70.9 µM; IC50 (DU145): 0.388 µg/mL (≈ 0.916 µM); IC50 (HTB161): 0.341 µg/mL (≈ 0.806 µM); IC50 (HL60): 0.758 µg/mL (≈ 1.79 µM)
– | N#Cc1cnc2ccc([N+](=O)[O-])cc2c1Nc1cccc(C(F)(F)F)c1 [Example 23, 6-Nitro-4[(3-trifluoromethylphenyl)amino]-3-quinolinecarbonitrile] | – | – | > 100 µg/mL | – | – | – | – | – | – | > 100 µg/mL | – | > 100 µM | – | – | – | – | – | – | IC50 (SW620; read-out: IC50 SW620): > 100 µg/mL; IC50 [3]: 27.9 µM
– | COc1cc2ncc(C#N)c(Nc3cccc(C(F)(F)F)c3)c2cc1OC [Example 42, 4-[(3-Trifluoromethylphenyl)amino]-6,7-dimethoxy-3-quinolinecarbonitrile] | – | 5.23 µg/mL (≈ 14 µM) | – | – | – | – | 6.14 µg/mL (≈ 16.5 µM) | 6.47 µg/mL (≈ 17.3 µM) | 6.78 µg/mL (≈ 18.2 µM) | – | 12.5 µg/mL (≈ 33.6 µM) | – | – | – | 31.2 µg/mL (≈ 83.5 µM) | 5.97 µg/mL (≈ 16 µM) | 6.78 µg/mL (≈ 18.2 µM) | – | –
– | COc1ccc(Nc2c(C#N)cnc3cc(OC)c(OC)cc23)cc1OC [Example 43, 4-[(3,4-Dimethoxyphenyl)amino]-6,7-dimethoxy-3-quinolinecarbonitrile] | 2.56 µg/mL (≈ 7 µM) | – | – | – | 2.86 µg/mL (≈ 7.83 µM) | 3.43 µg/mL (≈ 9.38 µM) | 5.83 µg/mL (≈ 16 µM) | – | – | – | 5.19 µg/mL (≈ 14.2 µM) | 30 µM | – | – | 4.33 µg/mL (≈ 11.8 µM) | 4.22 µg/mL (≈ 11.6 µM) | 4.5 µg/mL (≈ 12.3 µM) | 4.53 µg/mL (≈ 12.4 µM) | –
– | COc1cc2ncc(C#N)c(Nc3cccc(CO)c3)c2cc1OC [Example 48, 4-[(3-(hydroxymethyl)phenyl)amino]-6,7-dimethoxy-3-quinolinecarbonitrile] | > 100 µg/mL | > 100 µg/mL | > 100 µg/mL | > 100 µg/mL | 47 µg/mL (≈ 140 µM) | 59.2 µg/mL (≈ 177 µM) | 79.3 µg/mL (≈ 236 µM) | > 100 µg/mL | – | – | 64.5 µg/mL (≈ 192 µM) | – | > 100 µg/mL | > 100 µg/mL | > 100 µg/mL | – | > 100 µg/mL | 40.6 µg/mL (≈ 121 µM) | –
0.05 nM | N#Cc1cnc2ccc(NC(=O)/C=C/Cl)cc2c1Nc1cccc(Br)c1 [Example 51, N-[4-[(3-Bromophenyl)amino]-3-cyano-6-quinolinyl]-3(E)-chloro-2-propenamide] | – | – | – | – | – | – | – | – | – | – | – | – | – | – | – | – | – | – | –
10 nM | N#Cc1cnc2ccc(NC(=O)/C=C\Cl)cc2c1Nc1cccc(Br)c1 [Example 52, N-[4-[(3-Bromophenyl)amino]-3-cyano-6-quinolinyl]-3(Z)-chloro-2-propenamide] | – | – | – | – | – | – | – | – | – | – | – | – | – | – | – | – | – | – | –
7 nM | C=C(C)C(=O)Nc1ccc2ncc(C#N)c(Nc3cccc(Br)c3)c2c1 [Example 53, N-[4-[(3-Bromophenyl)amino]-3-cyano-6-quinolinyl]-2-methyl-2-propenamide] | – | – | – | – | – | – | – | – | – | – | – | – | – | – | – | – | – | – | –
